Results from ChEMBL document CHEMBL5357062, “Emopamil-Binding Protein Inhibitors for Treating Multiple Sclerosis” (ACS Med Chem Lett, 2024).

What follows are compounds tested against 3-beta-hydroxysteroid-Delta(8),Delta(7)-isomerase (Homo sapiens, UniProt Q15125) (assay: Inhibition of EBP in HEK293T cells using zymosterol-d5 as substrate preincubated for 30 mins followed by substrate addition and measured after 4 hrs by LC-MS analysis).
Type: cell-based

Chain of 3-beta-hydroxysteroid-Delta(8),Delta(7)-isomerase (Q15125 whole entry): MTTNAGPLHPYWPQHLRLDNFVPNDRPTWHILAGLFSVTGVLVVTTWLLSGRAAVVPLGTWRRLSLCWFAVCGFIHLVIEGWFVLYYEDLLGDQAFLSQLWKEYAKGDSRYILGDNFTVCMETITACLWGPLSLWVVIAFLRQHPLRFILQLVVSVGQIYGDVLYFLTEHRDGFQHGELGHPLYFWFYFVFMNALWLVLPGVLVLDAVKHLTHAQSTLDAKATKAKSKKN

Structure (SMILES) | IC50
Cn1nc(C(F)(F)F)cc1S(=O)(=O)N1CC2(CN(CC3CC4(COC4)C3)C2)C1 | < 0.1 µM
CC(C)c1cc(S(=O)(=O)N2CC3(CN(C4CCOCC4)C3)C2)n(C)n1 | < 0.1 µM
O=S(=O)(c1ccc(C(F)(F)F)nc1C1CC1)N1CC2(CN(C3CCOCC3)C2)C1 | < 0.1 µM
O=S(=O)(c1cc(F)cc(F)c1)N1CCOC2(CCN(C3CCOCC3)C2)C1 (stereo unspecified) | < 0.1 µM
Cn1nc(C(F)(F)F)cc1S(=O)(=O)N1CCC2(CCN(C3CCOCC3)C2)CC1 | < 0.1 µM
Cc1nc(C(F)(F)F)ccc1S(=O)(=O)N1CC2(CN(C(C)C3CCCO3)C2)C1 (stereo unspecified) | < 0.1 µM
